In patent publication US8829007B2 (priority 2009, dated 2014):

What follows are compounds tested on influenza A virus (A/PR/8/34) (assay: microbe, parasite or virus in culture). Conditions: Influenza A virus, PR/8, MDCK, mean all; A/PR/8/34 infected MDCK cells, CPE assay; read-out: IC50.
Type: cell-based

Row | Compound | IC50
1 | O=C(OC1CCOC1)N1CC(Nc2nc(-c3c[nH]c4ncc(Cl)cc34)ncc2F)C1 [Compound 422, (S)-tetrahydrofuran-3-yl 3-((2-(5-chloro-1H-pyrrolo[2,3-b]pyridin-3-yl)-5-fluoropyrimidin-4-ylamino)azetidine-1-carboxylate] | > 20 µM
2 | O=C(O[C@H]1CCOC1)N1CC[C@@H](Nc2nc(-c3c[nH]c4ncc(Cl)cc34)ncc2F)C1 [Compound 424] | > 20 µM
3 | CN(C)C(=O)N[C@H]1CCCC[C@@H]1Nc1nc(-c2c[nH]c3ncc(Cl)cc23)ncc1F [Compound 427, 3-[(1S,2S)-2-[[2-(5-chloro-1H-pyrrolo[2,3-b]pyridin-3-yl)-5-fluoro-pyrimidin-4-yl]amino]cyclohexyl]-1,1-dimethyl-urea] | > 20 µM
4 | CC(C)C(=O)N1CCC[C@H](Nc2nc(-c3c[nH]c4ncc(Cl)cc34)ncc2F)C1 [Compound 436] | < 5 µM
5 | CC(C)(C)C(=O)N1CCC[C@H](Nc2nc(-c3c[nH]c4ncc(Cl)cc34)ncc2F)C1 [Compound 437] | > 20 µM
6 | CCOC(=O)N1CCC[C@H](Nc2nc(-c3c[nH]c4ncc(Cl)cc34)ncc2F)C1 [Compound 441] | 5 to 20 µM
7 | CC(C)OC(=O)N1CCC[C@H](Nc2nc(-c3c[nH]c4ncc(Cl)cc34)ncc2F)C1 [Compound 442] | 5 to 20 µM
8 | CC1(C(=O)N2CCC[C@H](Nc3nc(-c4c[nH]c5ncc(Cl)cc45)ncc3F)C2)CC1 [Compound 445] | < 5 µM
9 | CC(C)NC(=O)N1CCOC(CNc2nc(-c3c[nH]c4ncc(Cl)cc34)ncc2F)C1 (centres unmarked) [Compound 446, 2-((2-(5-chloro-1H-pyrrolo[2,3-b]pyridin-3-yl)-5-fluoropyrimidin-4-ylamino)methyl)-N-isopropylmorpholine-4-carboxamide] | > 20 µM
10 | CC(C)OC(=O)N1CCOC(CNc2nc(-c3c[nH]c4ncc(Cl)cc34)ncc2F)C1 (centres unmarked) [Compound 447, Isopropyl 2-((2-(5-chloro-1H-pyrrolo[2,3-b]pyridin-3-yl)-5-fluoropyrimidin-4-ylamino)methyl)morpholine-4-carboxylate] | > 20 µM
11 | CC(C)S(=O)(=O)N1CCOC(CNc2nc(-c3c[nH]c4ncc(Cl)cc34)ncc2F)C1 (centres unmarked) [Compound 448, 2-(5-chloro-1H-pyrrolo[2,3-b]pyridin-3-yl)-5-fluoro-N-((4-(isopropylsulfonyl)morpholin-2-yl)methyl)pyrimidin-4-amine] | > 20 µM
12 | CCC(=O)N1CCOC(CNc2nc(-c3c[nH]c4ncc(Cl)cc34)ncc2F)C1 (centres unmarked) [Compound 449, 1-(2-((2-(5-chloro-1H-pyrrolo[2,3-b]pyridin-3-yl)-5-fluoropyrimidin-4-ylamino)methyl)morpholino)propan-1-one] | 5 to 20 µM
13 | O=C(C1CC1)N1CCOC(CNc2nc(-c3c[nH]c4ncc(Cl)cc34)ncc2F)C1 (centres unmarked) [Compound 450, (2-((2-(5-chloro-1H-pyrrolo[2,3-b]pyridin-3-yl)-5-fluoropyrimidin-4-ylamino)methyl)morpholino)(cyclopropyl)methanone] | 5 to 20 µM
14 | O=C(C1CC1)N1CCC[C@H](Nc2nc(-c3c[nH]c4ncc(Cl)cc34)ncc2F)C1 [Compound 451] | 5 to 20 µM
15 | COCC(=O)N1CC(Nc2nc(-c3c[nH]c4ncc(Cl)cc34)ncc2F)C1 [Compound 468] | 5 to 20 µM

Same assay, conditions: Influenza A virus, PR/8, MDCK; read-out: IC50

Row | Compound | IC50
16 | CCCS(=O)(=O)N1CC(Nc2nc(-c3c[nH]c4ncc(Cl)cc34)ncc2F)C1 [Compound 423] | > 20 µM

Same assay, conditions: mean all; A/PR/8/34 infected MDCK cells, CPE assay; read-out: IC50

Row | Compound | IC50
17 | CC(=O)NC1CCCCC1Nc1nc(-c2c[nH]c3ncc(Cl)cc23)ncc1F (centres unmarked) [Compound 429] | 5 to 20 µM
18 | CC(C)S(=O)(=O)N1CCCC(Nc2ccnc(-c3c[nH]c4ncc(Cl)cc34)n2)C1 (centres unmarked) [Compound 465] | 5 to 20 µM
19 | CS(=O)(=O)N1CCCC(Nc2ccnc(-c3c[nH]c4ncc(Cl)cc34)n2)C1 (centres unmarked) [Compound 466] | 5 to 20 µM
20 | O=C(C1CCOC1)N1CCC(Nc2nc(-c3c[nH]c4ncc(Cl)cc34)ncc2F)C1 (centres unmarked) [Compound 467] | > 20 µM
